Laboratory results reported in PubChem BioAssay (NCI).
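All cell lines were grown in 96-well plates and treated with compound for 48 hours. TGI: concentration producing complete growth inhibition.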

How the values were obtained:
Experiment in all cases: NCI-60 cell line screen, 48 h
SF-539 CNS = tested on: SF-539 CNS
MCF7 breast = tested on: MCF7 breast
UACC-257 melanoma = tested on: UACC-257 melanoma
IGROV1 ovarian = tested on: IGROV1 ovarian
SR leukemia = tested on: SR leukemia
SF-268 CNS = tested on: SF-268 CNS
TK-10 renal = tested on: TK-10 renal
UO-31 renal = tested on: UO-31 renal
CCRF-CEM leukemia = tested on: CCRF-CEM leukemia
RPMI-8226 leukemia = tested on: RPMI-8226 leukemia
SNB-75 CNS = tested on: SNB-75 CNS
SK-MEL-2 melanoma = tested on: SK-MEL-2 melanoma
SN12C renal = tested on: SN12C renal
HCT-15 colon = tested on: HCT-15 colon
SW-620 colon = tested on: SW-620 colon
SNB-19 CNS = tested on: SNB-19 CNS
NCI/ADR-RES ovarian = tested on: NCI/ADR-RES ovarian
SK-MEL-5 melanoma = tested on: SK-MEL-5 melanoma
KM12 colon = tested on: KM12 colon
HOP-62 NSCLC = tested on: HOP-62 NSCLC
COLO 205 colon = tested on: COLO 205 colon
ACHN renal = tested on: ACHN renal
M14 melanoma = tested on: M14 melanoma
DU-145 prostate = tested on: DU-145 prostate
LOX IMVI melanoma = tested on: LOX IMVI melanoma
MDA-MB-231 breast = tested on: MDA-MB-231 breast
MDA-MB-435 = tested on: MDA-MB-435
CAKI-1 renal = tested on: CAKI-1 renal
NCI-H460 lung = tested on: NCI-H460 lung
MDA-N = tested on: MDA-N
T-47D breast = tested on: T-47D breast
A549 NSCLC = tested on: A549 NSCLC
BT-549 breast = tested on: BT-549 breast
HCC-2998 colon = tested on: HCC-2998 colon
OVCAR-8 ovarian = tested on: OVCAR-8 ovarian
A498 renal = tested on: A498 renal
NCI-H522 lung = tested on: NCI-H522 lung
EKVX NSCLC = tested on: EKVX NSCLC
K-562 leukemia = tested on: K-562 leukemia
MALME-3M melanoma = tested on: MALME-3M melanoma
HL-60(TB) leukemia = tested on: HL-60(TB) leukemia
NCI-H23 lung = tested on: NCI-H23 lung
HT29 colon = tested on: HT29 colon
PC-3 prostate = tested on: PC-3 prostate
HOP-92 NSCLC = tested on: HOP-92 NSCLC
SK-OV-3 ovarian = tested on: SK-OV-3 ovarian
786-0 renal = tested on: 786-0 renal
OVCAR-5 ovarian = tested on: OVCAR-5 ovarian
MOLT-4 leukemia = tested on: MOLT-4 leukemia
HS 578T breast = tested on: HS 578T breast
NCI-H226 lung = tested on: NCI-H226 lung
OVCAR-4 ovarian = tested on: OVCAR-4 ovarian
SF-295 CNS = tested on: SF-295 CNS
OVCAR-3 ovarian = tested on: OVCAR-3 ovarian
UACC-62 melanoma = tested on: UACC-62 melanoma
SK-MEL-28 melanoma = tested on: SK-MEL-28 melanoma
HCT-116 colon = tested on: HCT-116 colon
U251 CNS = tested on: U251 CNS
RXF 393 renal = tested on: RXF 393 renal

Cc1c2c(n(CCc3ccc(Cl)cc3)c1C)NC(c1ccccc1)C(C#N)S2(=O)=O (centres undefined) was tested, and the TGI (SF-539 CNS) was > 100 µM, the TGI (MCF7 breast) was > 60.1 µM and the TGI (UACC-257 melanoma) was > 100 µM. For the same compound, the TGI (IGROV1 ovarian) was > 100 µM, the TGI (SR leukemia) was 38.2 µM and the TGI (SF-268 CNS) was > 100 µM. The TGI (TK-10 renal) was > 100 µM, the TGI (UO-31 renal) was > 100 µM and the TGI (CCRF-CEM leukemia) was 5.07 µM. The TGI (RPMI-8226 leukemia) was 57.8 µM, the TGI (SNB-75 CNS) was > 100 µM and the TGI (SK-MEL-2 melanoma) was > 68.9 µM. The TGI (SN12C renal) was > 100 µM, the TGI (HCT-15 colon) was > 100 µM and the TGI (SW-620 colon) was > 100 µM. The TGI (SNB-19 CNS) was > 100 µM, the TGI (NCI/ADR-RES ovarian) was > 100 µM and the TGI (SK-MEL-5 melanoma) was 14.3 µM. The TGI (KM12 colon) was > 100 µM, the TGI (HOP-62 NSCLC) was > 100 µM and the TGI (COLO 205 colon) was > 71.4 µM. The TGI (ACHN renal) was > 100 µM, the TGI (M14 melanoma) was > 100 µM and the TGI (DU-145 prostate) was > 100 µM. The TGI (LOX IMVI melanoma) was > 75 µM, the TGI (MDA-MB-231 breast) was > 59.3 µM and the TGI (MDA-MB-435) was > 66.9 µM. For the same compound, the TGI (CAKI-1 renal) was > 100 µM, the TGI (NCI-H460 lung) was > 100 µM and the TGI (MDA-N) was > 74.9 µM. The TGI (T-47D breast) was > 100 µM, the TGI (A549 NSCLC) was > 100 µM and the TGI (BT-549 breast) was > 100 µM. For the same compound, the TGI (HCC-2998 colon) was > 100 µM, the TGI (OVCAR-8 ovarian) was > 100 µM and the TGI (A498 renal) was > 100 µM. The TGI (NCI-H522 lung) was > 100 µM, the TGI (EKVX NSCLC) was > 100 µM and the TGI (K-562 leukemia) was 47.8 µM. The TGI (MALME-3M melanoma) was > 80.2 µM, the TGI (HL-60(TB) leukemia) was > 100 µM and the TGI (NCI-H23 lung) was > 100 µM. The TGI (HT29 colon) was > 65.9 µM, the TGI (PC-3 prostate) was > 100 µM and the TGI (HOP-92 NSCLC) was > 100 µM. The TGI (SK-OV-3 ovarian) was > 100 µM, the TGI (786-0 renal) was > 100 µM and the TGI (OVCAR-5 ovarian) was > 100 µM. For the same compound, the TGI (MOLT-4 leukemia) was 11.6 µM, the TGI (HS 578T breast) was > 79.5 µM and the TGI (NCI-H226 lung) was > 100 µM. The TGI (OVCAR-4 ovarian) was > 100 µM, the TGI (SF-295 CNS) was > 100 µM and the TGI (OVCAR-3 ovarian) was > 100 µM. The TGI (UACC-62 melanoma) was > 100 µM, the TGI (SK-MEL-28 melanoma) was > 100 µM and the TGI (HCT-116 colon) was > 100 µM. The TGI (U251 CNS) was > 100 µM.

For COC(=O)c1c(OC(C)=O)ccc2c1c1c(n2C)C(=O)c2ccccc2C1=O, the TGI (SF-539 CNS) was 47 µM, the TGI (MCF7 breast) was > 100 µM and the TGI (UACC-257 melanoma) was 44.8 µM. For the same compound, the TGI (IGROV1 ovarian) was 22.3 µM, the TGI (SR leukemia) was > 100 µM and the TGI (SF-268 CNS) was > 100 µM. For the same compound, the TGI (TK-10 renal) was 88.1 µM, the TGI (UO-31 renal) was > 100 µM and the TGI (RPMI-8226 leukemia) was 28 µM. For the same compound, the TGI (SNB-75 CNS) was 41.3 µM, the TGI (SK-MEL-2 melanoma) was 96.1 µM and the TGI (SN12C renal) was > 100 µM. The TGI (HCT-15 colon) was > 100 µM, the TGI (SNB-19 CNS) was > 100 µM and the TGI (NCI/ADR-RES ovarian) was > 100 µM. For the same compound, the TGI (SK-MEL-5 melanoma) was 47 µM, the TGI (KM12 colon) was 86.4 µM and the TGI (HOP-62 NSCLC) was 67.4 µM. For the same compound, the TGI (COLO 205 colon) was > 100 µM, the TGI (ACHN renal) was 51.5 µM and the TGI (M14 melanoma) was > 100 µM. For the same compound, the TGI (DU-145 prostate) was 62.5 µM, the TGI (MDA-MB-231 breast) was > 100 µM and the TGI (MDA-MB-435) was > 100 µM. For the same compound, the TGI (CAKI-1 renal) was 61.7 µM, the TGI (NCI-H460 lung) was > 100 µM and the TGI (MDA-N) was > 100 µM. The TGI (T-47D breast) was 36.9 µM, the TGI (RXF 393 renal) was > 100 µM and the TGI (A549 NSCLC) was 80.8 µM. For the same compound, the TGI (BT-549 breast) was 57 µM, the TGI (HCC-2998 colon) was 63.5 µM and the TGI (OVCAR-8 ovarian) was > 100 µM. The TGI (A498 renal) was 41.7 µM, the TGI (NCI-H522 lung) was 67.6 µM and the TGI (EKVX NSCLC) was 92.7 µM. The TGI (K-562 leukemia) was > 100 µM, the TGI (MALME-3M melanoma) was 55.3 µM and the TGI (HL-60(TB) leukemia) was > 100 µM. The TGI (NCI-H23 lung) was 61.2 µM, the TGI (HT29 colon) was > 100 µM and the TGI (PC-3 prostate) was 88.1 µM. For the same compound, the TGI (HOP-92 NSCLC) was 9.58 µM, the TGI (SK-OV-3 ovarian) was 46.2 µM and the TGI (786-0 renal) was > 100 µM. For the same compound, the TGI (OVCAR-5 ovarian) was > 100 µM, the TGI (MOLT-4 leukemia) was > 100 µM and the TGI (HS 578T breast) was 39.1 µM. For the same compound, the TGI (NCI-H226 lung) was > 100 µM, the TGI (OVCAR-4 ovarian) was > 100 µM and the TGI (SF-295 CNS) was 67.8 µM. For the same compound, the TGI (OVCAR-3 ovarian) was 63 µM, the TGI (UACC-62 melanoma) was > 100 µM and the TGI (SK-MEL-28 melanoma) was > 100 µM. For the same compound, the TGI (HCT-116 colon) was > 100 µM and the TGI (U251 CNS) was > 100 µM.
